# Read-outs that look alike come from different tables or passages of the source. Where a SMILES comes first, the peptide text is derived from it. [ ]: non-standard residue; d: D form. Ahx = NCCCCCC(=O)O
# What was measured:
# [1] = tested on: wild-type (wt) Salmonella enterica serovar Typhimurium strain SL1344
# Protocol: (§1) MIC values were determined by broth microdilution according to standard protocols with a few modifications ([26]). An overnight bacterial cell culture, supplemented with the appropriate antibiotic when needed, was diluted 1:100 in fresh MHB and grown to OD600 0.5. The obtained culture was diluted to ∼10^5 cfu/ml or 10^6 cfu/ml, as indicated, in non-cation-adjusted MHB. Subsequently, 190 μl bacterial solution was dispensed into a 96-well plate (Thermo Fisher Scientific) along with 10 μl of a 20x PPNA, PNA or peptide working solution. Growth was monitored by measuring the OD at 600 nm every 20 min in a Synergy H1 plate reader (Biotek) with continuous double-orbital shaking (237 cpm) at 37°C for 24 h.
# SL1344 ΔphoP = experiment: MIC determination by broth microdilution; type: cell-based, Salmonella enterica serovar Typhimurium; details: Table 3; ∼10^5 cfu/ml; three biological replicates
# Protocol: as §1
# Fig. S4. Growth kinetics for MIC determ ination of 10^5 cfu/m l Salmonella wt (SL1344) and its isogenic ∆phoP m utant in the pres ence of var ying concentrations of the indicated conjugates. ( A) KFF-acpP, KFF-acpP-scram bled (scr) or KFF peptide in serial dilutions from 10 µM to 0.3 µM. ( B) RXR- acpP, RXR-acpP-scram bled (scr) or RXR peptide in seria l d ilutions f rom 10 µM to 0. 3 µM. ( C) T at-acpP, T at-acpP-scrambled (scr) or T at peptide in serial dilutions from 20 µM to 0.6 µM. D ata represent the average of three biological replicates, error bars indicate standard er ror of the m ean […]
# (§2) (1 picture or pasted object on this page, not shown here)
# [2] = tested on: wild-type Salmonella enterica serovar Typhimurium strain LT2; experiment: MIC determination by broth microdilution; type: cell-based; details: Table 3; ∼10^5 cfu/ml; three biological replicates
# Protocol: as §1
# (§3) Fig. S5. Growth k inetics for MIC determ ination of 10^5 cfu/m l Salmonella wt (LT 2) and its isogenic
# (§4) Pho PC m utant in the presen ce of var ying co ncentra tio n s of the in dicat ed co njugat e s. ( A) KFF-acpP,
# (§5) KFF-acpP-scram bled (scr) or KFF peptide in s erial dilutions from 10 µM to 0.3 µM. ( B) RXR- acpP,
# (§6) RXR- acpP-scram bled (scr) or RXR peptide in serial dilutions from 10 µM to 0.3 µ M. ( C) T at-acpP,
# (§7) T at-acpP-scram bled (scr) or T at peptide in serial dilutions from 20 µM to 0.6 µM. Data represent
# (§8) the average of three biological replicates, error bars indicate standard error of the m ean (SEM).
# as §2
# LT2 PhoP^C = experiment: MIC determination by broth microdilution; type: cell-based, Salmonella enterica serovar Typhimurium; details: Table 3; ∼10^5 cfu/ml; three biological replicates
# Protocol: as §1, §3, §4, §5, §6, §7, §8, §2
# [3] = tested on: Salmonella gene expression; experiment: RNA-seq transcriptomic response; type: cell-based, Salmonella enterica serovar Typhimurium; details: 15 min; for number of differentially expressed genes: absolute fold change >2 and FDR-adjusted P-value <0.001 versus water
# Protocol: Bacterial overnight cultures were diluted 1:100 in fresh MHB and grown to OD600 0.5. The obtained cultures were diluted to ∼10^6 cfu/ml in non-cation-adjusted MHB. Afterward, the bacterial solution was transferred into low-binding 5 ml tubes (LABsolute) along with the 20× PNA, peptide or PPNA solution. The final concentrations were 5 μM for KFF- and RXR-PNAs, and 10 μM for Tat-PNAs. Equimolar concentrations were used for the respective peptide control conditions. As a negative control, cells were treated with the respective volume of sterile nuclease-free water, which was used as solvent for the test compounds.
# A time kinetic was performed for subsequent northern blot analysis (5, 10, 15 min), in which the reaction was stopped at the indicated time points by using RNAprotect Bacteria (Qiagen). For RNA-seq analyses, adding RNAprotect Bacteria at 15 min post treatment stopped the reactions with the indicated PPNA constructs or the respective peptide. After vortexing for 5 s, the samples were incubated at room temperature for 10 min, followed by cell pelleting at 4°C and 21 100 ×g for 20 min. Pellets were directly used for RNA isolation or stored at –20°C (<2 days) until further processing. RNA was purified from bacterial pellets using isolation protocol #3, as described above (0.5 mg/ml lysozyme, miRNeasy).
# DNase treatment, cDNA library preparation and sequencing was conducted at Vertis (Munich, Germany). The RNA samples were first fragmented using ultrasound (4 pulses of 30 s each at 4°C). Then, an oligonucleotide adapter was ligated to the 3′ ends of the RNA molecules. First-strand cDNA synthesis was performed using M-MLV reverse transcriptase and the 3′ adapter as primer. The first-strand cDNA was purified and the 5′ Illumina TruSeq sequencing adapter was ligated to the 3′ end of the antisense cDNA. The resulting cDNA was PCR-amplified to about 10–20 ng/μl using a high fidelity DNA polymerase. The cDNA was purified using the Agencourt AMPure XP kit (Beckman Coulter Genomics) and was analyzed by capillary electrophoresis. For Illumina NextSeq sequencing, the samples were pooled in approximately equimolar amounts. The cDNA pool was sequenced on an Illumina NextSeq 500 system using 75 bp read length.
# Reads from the RNA-Seq experiments were trimmed, filtered and mapped against the S. enterica subsp. enterica serovar Typhimurium SL1344 reference genome and the three plasmids pSLT_SL1344, pCol1B9_SL1344 (other name is p2), and pRSF1010_SL1344 ([19]). BBDuk was applied to trim bases with a Phred quality score of <10, and adapters were removed simultaneously. Reads were then mapped against the reference genome using BBMap (v38.84) and then assigned genomic features, including both coding sequences and annotated sRNAs ([19],[29]) using the featureCounts method of the Subread (2.0.1) package.
# All downstream analysis was performed using packages from the R/Bioconductor project. The raw read counts were imported and analyzed with edgeR (v3.30.0). Each set of PNA-peptide conjugate experiments (i.e. experiments with KFF, RXR and Tat peptide) was analyzed simultaneously. Genes with less than 14.6 counts per million (CPM) in at least three libraries were filtered. This cutoff value was calculated using 10/L, where L is the library size of the smallest sample (minimum library size) in millions.
# Raw read counts were normalized by trimmed mean of M values (TMM) normalization. Differential expression analysis was conducted using edgeR ([31]). Estimation of quasi-likelihood (QL) dispersions was then run with the […] function. Then contrasts between all samples versus the water controls were created as input for the glmQLTest function.
# Genes with an absolute fold change >2 and an adjusted P-value (Benjamini–Hochberg, ([32])) <0.001 were considered differentially expressed.
# [4] = wild-type (wt) serovar Typhimurium strain SL1344, 24 h
# [5] = Table 1, ∼10^5 cfu/ml, non-cation-adjusted MHB, 37°C, 24 h, lowest concentration with OD600 < 0.1
# [6] = RNA-seq, 5 μM, listed as RXR-acpP-scrambled
# [7] = edgeR, versus water, 5 μM KFF-/RXR-constructs, 10 μM Tat-constructs, triplicates
# [8] = edgeR, versus water, 5 μM RXR-constructs, 10 μM Tat-constructs, triplicates, listed as PNARXRscr
# [9] = edgeR, versus water, 5 μM, triplicates
# [10] = 5 μM KFF-/RXR-constructs, 10 μM Tat-constructs
# [11] = edgeR, versus water, 5 μM RXR-constructs, 10 μM Tat-constructs, triplicates
# [12] = edgeR, versus water, 10 μM, triplicates
molecule,measurement,setting,value
"CC(C)C[C@H](NC(=O)[C@H](CCC(=O)O)NC(=O)[C@@H](NC(=O)[C@@H]1CCCN1C(=O)[C@@H]1CCCN1C(=O)[C@@H]1CCCN1C(=O)[C@H](CC(C)C)NC(=O)[C@H](CCC(=O)O)NC(=O)[C@@H](NC(=O)[C@@H]1CCCN1C(=O)[C@@H]1CCCN1C(=O)[C@@H]1CCCN1C(=O)[C@H](CC(C)C)NC(=O)[C@H](CCC(=O)O)NC(=O)[C@@H](N)C(C)C)C(C)C)C(C)C)C(=O)N1CCC[C@H]1C(=O)N1CCC[C@H]1C(=O)N1CCC[C@H]1C(=O)O [SAPE, reference compound] (H-VELPPPVELPPPVELPPP-OH; N-terminus and C-terminus assumed)",MIC,[1]; [4],>10 µM
"RXRRXRRXRRXRXB [RXR-acpP-scr, RXR peptide conjugated to scrambled control PNA]",MIC,[1]; [5],>10 µM
same,MIC,"[1]; Table 2, ∼10^6 cfu/ml, non-cation-adjusted MHB, 37°C, 24 h, performed three times",>10 µM
same,"MIC in μM, SL1344 ΔphoP",SL1344 ΔphoP,5 µM
same,"MIC in μM, LT2 wt",[2],10 µM
same,"MIC in μM, LT2 PhoP^C",LT2 PhoP^C,>10 µM
same,"number of downregulated sRNAs, apart from the induction of AmgR",[3]; [6],three
same,upregulation of mig-14,[3]; [6],1.92 fold
same,logFC yfiA,[3]; [7],1.5255
same,logFC SL1344_0066A,[3]; [8],4.581
same,logFC SL1344_2742,[3]; [8],3.203
same,logFC mgtA,[3]; [8],1.779
same,logFC yihO,[3]; [9],3.308
RQIKIWFQNRRMKWKK [ANT-acpP],MIC,"[1]; Table 1, ∼10^5 cfu/ml, non-cation-adjusted MHB, 37°C, 24 h",12 µg/mL
same,MIC,[1]; [5],3.3 µM
"CC(=O)N[C@@H](CCCCN)C(=O)N[C@@H](Cc1ccccc1)C(=O)N[C@@H](Cc1ccccc1)C(=O)N[C@@H](CCCCN)C(=O)N[C@@H](Cc1ccccc1)C(=O)N[C@@H](Cc1ccccc1)C(=O)N[C@@H](CCCCN)C(=O)N[C@@H](Cc1ccccc1)C(=O)N[C@@H](Cc1ccccc1)C(=O)N[C@@H](CCCCN)C(=O)O [KFF, reference compound] (Ac-KFFKFFKFFK-OH; C-terminus assumed)",MIC,[1]; [4],>10 µM
same,"MIC in μM, SL1344 wt",[1]; [4],>10 µM
same,number of differentially expressed genes,[3]; [10],32
same,upregulation of AmgR transcript levels,"[3]; RNA-seq, 5 μM",~4 fold
same,logFC AmgR,[3]; [7],1.914
same,logFC mig-14,[3]; [7],2.101
same,logFC virK,[3]; [7],2.978
same,logFC yfbE,[3]; [9],1.473
same,logFC yjeH,[3]; [9],1.189
VELPPPVELPPPVELPPP [SAPE-acpP-scr],MIC,[1]; [5],>10 µM
"CC(C)C[C@H](NC(=O)[C@H](CCCNC(=N)N)NC(=O)[C@@H](NC(=O)[C@@H]1CCCN1C(=O)[C@@H]1CCCN1C(=O)[C@@H]1CCCN1C(=O)[C@H](CC(C)C)NC(=O)[C@H](CCCNC(=N)N)NC(=O)[C@@H](NC(=O)[C@@H]1CCCN1C(=O)[C@@H]1CCCN1C(=O)[C@@H]1CCCN1C(=O)[C@H](CC(C)C)NC(=O)[C@H](CCCNC(=N)N)NC(=O)[C@@H](N)C(C)C)C(C)C)C(C)C)C(=O)N1CCC[C@H]1C(=O)N1CCC[C@H]1C(=O)N1CCC[C@H]1C(=O)O [SAP, reference compound] (H-VRLPPPVRLPPPVRLPPP-OH; N-terminus and C-terminus assumed)",MIC,[1]; [4],>10 µM
"CC(=O)N[C@@H](CCCNC(=N)N)C(=O)NCCCCCC(=O)N[C@@H](CCCNC(=N)N)C(=O)N[C@@H](CCCNC(=N)N)C(=O)NCCCCCC(=O)N[C@@H](CCCNC(=N)N)C(=O)N[C@@H](CCCNC(=N)N)C(=O)NCCCCCC(=O)N[C@@H](CCCNC(=N)N)C(=O)N[C@@H](CCCNC(=N)N)C(=O)NCCCCCC(=O)N[C@@H](CCCNC(=N)N)C(=O)NCCCCCC(=O)O [RXR, reference compound] (Ac-R[Ahx]RR[Ahx]RR[Ahx]RR[Ahx]R[Ahx]-OH; C-terminus assumed)",MIC,[1]; [4],>10 µM
same,"MIC in μM, SL1344 wt",[1]; [4],>10 µM
same,number of differentially expressed genes,[3]; [10],26
same,fold change in gene expression of phoQ,"[3]; RNA-seq, 5 μM, below cutoff of >2",1.87 fold
same,logFC AmgR,[3]; [7],1.916
same,logFC mig-14,[3]; [7],1.873
same,logFC virK,[3]; [7],2.819
same,logFC mgtA,[3]; [11],1.432
same,logFC yfbE,[3]; [9],1.219
RQIKIWFQNRRMKWKK [ANT-acpP-scr],MIC,[1]; [5],>10 µM
VRLPPPVRLPPPVRLPPP [SAP-acpP-scr],MIC,[1]; [5],>10 µM
"CC(=O)NCC(=O)N[C@@H](CCCNC(=N)N)C(=O)N[C@@H](CCCCN)C(=O)N[C@@H](CCCCN)C(=O)N[C@@H](CCCCN)C(=O)N[C@@H](CCCNC(=N)N)C(=O)N[C@@H](CCCNC(=N)N)C(=O)N[C@@H](CCC(N)=O)C(=O)N[C@@H](CCCNC(=N)N)C(=O)N[C@@H](CCCNC(=N)N)C(=O)N[C@@H](CCCNC(=N)N)C(=O)N[C@@H](Cc1ccc(O)cc1)C(=O)N[C@@H](CCCCN)C(=O)O [Tat, reference compound] (Ac-GRKKKRRQRRRYK-OH)","MIC in μM, SL1344 wt",[1]; [4],>20 µM
same,number of differentially expressed genes,[3]; [10],97
same,"maximum fold change, mgtB","[3]; RNA-seq, 10 μM",35 fold
same,logFC AmgR,[3]; [7],3.7167
same,logFC virK,[3]; [7],4.014
same,logFC mgtA,[3]; [11],2.72
same,logFC cigR,[3]; [12],3.46
same,logFC phoN,[3]; [12],2.478
